Test results published in patent US20110263693A1, “CELASTROL, GEDUNIN, AND DERIVATIVES THEREOF AS HSP90 INHIBITORS” (DANA-FARBER CANCER INSTITUTE, INC., priority 2006, published 2011).

Tests used:
[1] = system: HSP90 interaction with the cochaperone p23; assay: HSP90 coimmunoprecipitation, p23; format: cell-based; details: SKBR-3 cells; celastrol 2.5 μM, 12 hr
Experimental: Geldanamycin and other HSP90 inhibitors are known to inhibit p23 association with HSP90 (Felts et al., 2003).
SKBR-3 cells were treated with vehicle, celastrol (2.5 μM, 12 hr), and PU24FCI (20 μM, 24 hr) (Vilenchik et al., 2004). Cells were lysed in 20 mM Tris HCl (pH 7.4), 25 mM NaCl, 2 mM DDT, 20 mM Na2MoO4, 0.1% NP-40, and […]. Lysates were incubated for 2 hr at 4° C., rotating, and then centrifuged at 13,000×g for 10 min. Protein (500 μg) was incubated with H9010 anti-HSP90 antibody for 1 hr at 4° C., rotating. Protein G agarose (30 μl; Upstate) was added to each sample, and samples were then incubated for 1 hr at 4° C., rotating. The beads were washed five times with 1 ml lysis buffer. Bound proteins were isolated by boiling in sample buffer. The levels of HSP90 and coimmunoprecipitating proteins were analyzed by western blot.

HSP90α = HSP90α (Homo sapiens, UniProt P07900); assay: Geldanamycin competition assay (Cy3B-geldanamycin fluorescence polarization); format: binding; parameters: purchased Stressgen SPP776 / SPP-776; details: celastrol and gedunin at concentrations up to ~100 μM
Experimental: We first tested whether celastrol or gedunin could compete with Cy3B-geldanamycin for binding to the ATP-binding pocket of purified HSP90α by fluorescence polarization assay (Kim et al., 2004, Llauger-Bufi et al., 2003).
The geldanamycin competition assay was performed as described (He et al., 2006, Kim et al., 2004), except that Cy3B-geldanamycin rather than BODIPY-geldanamycin was used as described herein.
Measurements were taken in black 96-well microtiter plates (Coming #3650). The assay buffer (HFB) contained 20 mM HEPES (K) pH 7.3, 50 mM KCl, 5 mM MgCl2, 20 mM Na2MoO4, 0.01% NP40. Before each use, 0.1 mg/mL bovine gamma globulin (BGG) (Panvera Corporation, Madison, Wis.) and 2 mM DTT (Fisher Biotech, Fair Lawn, N.J.) were freshly added. GM-cy3B was synthesized as previously reported and was dissolved in DMSO to form 10 μM solutions. Cell lysates were prepared rupturing cellular membranes by freezing at −70° C. and dissolving the cellular extract in HFB with added protease and phosphotase inhibitors. Saturation curves were recorded in which GM-cy3B (3 nM) was treated with increasing amounts of cellular lysates.

in vitro = details: human

## CC(C)NCCCn1c(Sc2cc3c(cc2I)OCO3)nc2c(N)ncnc21 [PU-H71, reference compound]
[1]
  HSP90 interaction with cochaperone p23 (coimmunoprecipitation): had the same effect
HSP90α
  competition with Cy3B-geldanamycin for binding to the ATP-binding pocket of HSP90α: competed with geldanamycin binding at low concentrations

## CO[C@H]1C[C@H](O[C@@H]2/C(C)=C/C[C@@H]3C[C@@H](C[C@]4(CC[C@H](C)[C@@H](C5CCCCC5)O4)O3)OC(=O)[C@@H]3C=C(C)/C(=N/O)[C@H]4OC/C(=C\C=C\[C@@H]2C)[C@]43O)O[C@@H](C)[C@@H]1O [selamectin]
In vitro
  viability: 81.1%
